Results on 3 compounds are retold here after patent US7534891B2, “Quinoline derivatives as H3R inverse agonists” (Hoffman-La Roche Inc., priority 2004, dated 2009).

pKi: −log10 of the molar value.

For the assay, the target named is T1, histamine 3 receptor (H3R), human HR3-CHO membranes (Homo sapiens, UniProt Q9Y5N1).
T1 construct: expressed in transfected cells; host or cells: CHO cells (HR3-CHO cell line), membrane preparation
T1 sequence (Q9Y5N1 whole entry): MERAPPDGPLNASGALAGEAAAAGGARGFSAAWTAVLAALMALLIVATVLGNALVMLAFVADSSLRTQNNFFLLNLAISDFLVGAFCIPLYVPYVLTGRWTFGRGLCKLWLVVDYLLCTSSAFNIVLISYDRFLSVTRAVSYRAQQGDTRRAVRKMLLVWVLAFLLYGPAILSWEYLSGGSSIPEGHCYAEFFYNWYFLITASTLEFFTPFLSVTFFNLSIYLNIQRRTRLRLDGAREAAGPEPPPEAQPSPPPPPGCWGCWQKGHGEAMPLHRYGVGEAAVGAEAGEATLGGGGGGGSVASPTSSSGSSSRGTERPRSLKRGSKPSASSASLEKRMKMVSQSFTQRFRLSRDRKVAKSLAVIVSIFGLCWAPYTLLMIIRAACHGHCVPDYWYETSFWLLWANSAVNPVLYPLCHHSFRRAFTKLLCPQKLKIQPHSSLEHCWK
The experiment in a line: Competition binding assay with 3H-(R)α-methylhistamine on membranes of the human HR3-CHO cell line. The conditions noted are these: displacement of 3H-(R)α-methylhistamine (1 nM), membrane of human HR3-CHO cell line; Ki calculated from IC50 by Cheng-Prusoff. The protocol:
Binding Assay with ^3H-(R)α-methylhistamine
Saturation binding experiments were performed using HR3-CHO membranes prepared as described in Takahashi, K, Tokita, S., Kotani, H. (2003) J. Pharmacol. Exp. Therapeutics 307, 213-218.
An appropriate amount of membrane (60 to 80 μg protein/well) was incubated with increasing concentrations of ^3H(R)α-Methylhistamine di-hydrochloride (0.10 to 10 nM). Non specific binding was determined using a 200 fold excess of cold (R)(X-Methylhistamine dihydrobromide (500 nM final concentration). The incubation was carried out at room temperature (in deep-well plates shaking for three hours). The final volume in each well was 250 pt. The incubation was followed by rapid filtration on GF/B filters (pre-soaked with 100 W of 0.5% PEI in Tris 50 mM shaking at 200 rpm for two hours). The filtration was made using a cell-harvester and the filter plates were then washed five times with ice cold washing buffer containing 0.5 M NaCl. After harvesting, the plates were dried at 55° C. for 60 min, then we added scintillation fluid (Microscint 40, 40 microl in each well) and the amount of radioactivity on the filter was determined in Packard top-counter after shaking the plates for two hours at 200 rpm at room temperature.
Binding Buffer: 50 mM Tris-HCl pH 7.4 and 5 mM MgCl2×6H2O pH 7.4. Washing Buffer: 50 mM Tris-HCl pH 7.4 and 5 mM MgCl2x6H2O and 0.5 M NaCl pH 7.4.
Indirect measurement of affinity of H3R inverse agonists: twelve increasing concentrations (ranging from 10 μM to 0.3 nM) of the selected compounds were always tested in competition binding experiments using membrane of the human HR3-CHO cell line. An appropriate amount of protein, e.g. approximately 500 cpm binding of RAMH at Kd, were incubated for 1 hour at room temperature in 250 μl final volume in 96-well plates in presence of ^3H(R)α-Methylhistamine (1 nM final concentration=Kd). […]
All compounds were tested at a single concentration in duplicates. […] Ki's were calculated from IC50 based on Cheng-Prusoff equation (Cheng, Y, Prusoff, W H (1973) Biochem Pharmacol 22, 3099-3108).
As to `CC(C)N1CCC(Oc2ccc3nc(C(=O)N4CCC4)ccc3c2)CC1` [Example 14, azetidine-1-yl-[6-(1-isopropyl-piperidin-4-yloxy)-quinolin-2-yl]-methanone], the pKi is 7.11.
The figure for `O=C(c1ccc2cc(OCCCN3CCCCC3)ccc2n1)N1CCCC1` [Example 64, [6-(3-piperidin-1-yl-propoxy)-quinolin-2-yl]-pyrrolidin-1-yl-methanone] is 6.35; for `CC(C)N1CCC(Oc2ccc3nc(C(=O)N4CC=CC4)ccc3c2)CC1` [Example 2, (2,5-dihydro-pyrrol-1-yl)-[6-(1-isopropyl-piperidin-4-yloxy)-quinolin-2-yl]-methanone] it is 6.70.

The term pKi denotes −log10 of the Ki, conventionally taken in molar units.
